Assay results reported in PMC6976569, “Structural basis of subtype-selective competitive antagonism for GluN2C/2D-containing NMDA receptors” (Nature Communications, 2020).

What was measured:
[1] = biological target: T1, GluN1-4a/GluN2D Met763Lys/Lys766Arg NMDARs (Rattus norvegicus, UniProt P35439+Q62645, K766R/M763K); assay: TEVC electrophysiology on oocytes expressing GluN1-4a/GluN2D Met763Lys/Lys766Arg; type: cell-based
T1 construct: expressed in transfected cells; host or cells: Xenopus laevis oocytes injected with cRNA
T1 sequence (Q62645 28-1323 M763K/K766R, other chains not shown): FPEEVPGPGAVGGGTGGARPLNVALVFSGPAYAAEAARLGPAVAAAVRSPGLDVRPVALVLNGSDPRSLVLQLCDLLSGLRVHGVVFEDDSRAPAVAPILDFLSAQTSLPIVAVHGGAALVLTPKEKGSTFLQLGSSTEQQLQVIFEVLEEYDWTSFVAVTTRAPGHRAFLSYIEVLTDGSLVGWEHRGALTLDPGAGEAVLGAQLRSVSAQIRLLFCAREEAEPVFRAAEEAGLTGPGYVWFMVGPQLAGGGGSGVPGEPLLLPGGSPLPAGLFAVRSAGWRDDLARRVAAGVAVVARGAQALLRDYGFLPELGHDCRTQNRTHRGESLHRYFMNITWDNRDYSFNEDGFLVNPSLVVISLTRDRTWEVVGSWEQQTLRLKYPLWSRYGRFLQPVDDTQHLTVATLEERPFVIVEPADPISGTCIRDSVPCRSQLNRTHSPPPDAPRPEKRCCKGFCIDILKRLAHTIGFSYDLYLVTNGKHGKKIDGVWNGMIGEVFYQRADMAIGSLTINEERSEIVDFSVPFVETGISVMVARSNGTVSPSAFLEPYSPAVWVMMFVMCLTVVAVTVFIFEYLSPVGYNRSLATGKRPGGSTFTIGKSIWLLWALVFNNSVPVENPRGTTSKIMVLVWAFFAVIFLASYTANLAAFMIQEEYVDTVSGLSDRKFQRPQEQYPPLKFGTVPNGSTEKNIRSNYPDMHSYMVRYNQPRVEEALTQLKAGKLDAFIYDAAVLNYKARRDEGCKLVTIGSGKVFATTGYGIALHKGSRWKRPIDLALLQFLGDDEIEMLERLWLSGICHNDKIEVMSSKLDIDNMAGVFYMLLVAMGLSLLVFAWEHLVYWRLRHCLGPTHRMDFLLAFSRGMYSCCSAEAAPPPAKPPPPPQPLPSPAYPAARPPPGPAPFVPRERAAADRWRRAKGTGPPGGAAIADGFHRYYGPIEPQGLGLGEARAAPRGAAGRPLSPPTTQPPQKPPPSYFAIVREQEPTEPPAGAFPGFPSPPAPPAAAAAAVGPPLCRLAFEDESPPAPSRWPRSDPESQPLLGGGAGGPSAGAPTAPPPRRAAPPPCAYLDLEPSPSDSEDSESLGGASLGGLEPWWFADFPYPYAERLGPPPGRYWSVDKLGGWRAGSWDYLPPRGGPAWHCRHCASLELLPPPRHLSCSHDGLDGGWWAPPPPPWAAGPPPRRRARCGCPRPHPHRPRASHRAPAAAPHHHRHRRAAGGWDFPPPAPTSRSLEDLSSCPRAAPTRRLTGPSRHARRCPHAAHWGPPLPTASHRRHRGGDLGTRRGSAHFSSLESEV
Source text: To test the validity of the structural observation for the critical involvement of the methionine/lysine residue combination (GluN2D-Met763/Lys766, and GluN2A-4m-Met738/Lys741) in preferential binding of UBP791 to GluN2D over GluN2A, we conducted site-directed mutagenesis and assessed inhibition potencies of the mutant channels by TEVC. Specifically, we converted the GluN2D residues to the equivalent ones in the GluN2A subunit and measured macroscopic currents of the GluN1-4a/GluN2D mutant NMDARs.
(§1) Plasmids (pSP or pCI_NEO) harboring rat GluN1 or GluN2 full-length subunits were linearized by restriction digestion and transcribed according to the manufacturer’s instructions (mMESSAGE mMachine SP6 or T7 kit, ThermoFisher Scientific). Recombinant rat GluN1-4a and GluN2 were expressed by co-injecting cRNA at a 1:2 (w/w) ratio into defolliculated X. laevis oocytes (amounts varied from 0.05–25 ng per oocyte). Two-electrode voltage-clamp recordings were performed 1–3 days after injection using agarose-tipped microelectrodes (0.4–1.2 MΩ) filled with 3 M KCl at a holding potential of −60 mV. The bath solution contained 5 mM HEPES, 100 mM NaCl, 0.3 mM BaCl2, 10 mM Tricine, at pH 7.4 (adjusted with KOH). […] For the statistical evaluation, we implemented pairwise F-tests to test variances, and then performed the Student t test with equal or unequal variances as determined previously, and accounted for multiple testing with the Bonferroni correction.

GluN1-4a/GluN2C NMDARs = biological target: T2, GluN1-4a/GluN2C NMDARs (Rattus norvegicus, UniProt Q00961); assay: TEVC electrophysiology on Xenopus laevis oocytes expressing GluN1-4a/GluN2C; type: cell-based; settings: Ki GluN2C relative to Ki GluN2D (WT)
T2 construct: expressed in transfected cells; host or cells: Xenopus laevis oocytes injected with cRNA
T2 sequence (Q00961 20-1237, other chains not shown): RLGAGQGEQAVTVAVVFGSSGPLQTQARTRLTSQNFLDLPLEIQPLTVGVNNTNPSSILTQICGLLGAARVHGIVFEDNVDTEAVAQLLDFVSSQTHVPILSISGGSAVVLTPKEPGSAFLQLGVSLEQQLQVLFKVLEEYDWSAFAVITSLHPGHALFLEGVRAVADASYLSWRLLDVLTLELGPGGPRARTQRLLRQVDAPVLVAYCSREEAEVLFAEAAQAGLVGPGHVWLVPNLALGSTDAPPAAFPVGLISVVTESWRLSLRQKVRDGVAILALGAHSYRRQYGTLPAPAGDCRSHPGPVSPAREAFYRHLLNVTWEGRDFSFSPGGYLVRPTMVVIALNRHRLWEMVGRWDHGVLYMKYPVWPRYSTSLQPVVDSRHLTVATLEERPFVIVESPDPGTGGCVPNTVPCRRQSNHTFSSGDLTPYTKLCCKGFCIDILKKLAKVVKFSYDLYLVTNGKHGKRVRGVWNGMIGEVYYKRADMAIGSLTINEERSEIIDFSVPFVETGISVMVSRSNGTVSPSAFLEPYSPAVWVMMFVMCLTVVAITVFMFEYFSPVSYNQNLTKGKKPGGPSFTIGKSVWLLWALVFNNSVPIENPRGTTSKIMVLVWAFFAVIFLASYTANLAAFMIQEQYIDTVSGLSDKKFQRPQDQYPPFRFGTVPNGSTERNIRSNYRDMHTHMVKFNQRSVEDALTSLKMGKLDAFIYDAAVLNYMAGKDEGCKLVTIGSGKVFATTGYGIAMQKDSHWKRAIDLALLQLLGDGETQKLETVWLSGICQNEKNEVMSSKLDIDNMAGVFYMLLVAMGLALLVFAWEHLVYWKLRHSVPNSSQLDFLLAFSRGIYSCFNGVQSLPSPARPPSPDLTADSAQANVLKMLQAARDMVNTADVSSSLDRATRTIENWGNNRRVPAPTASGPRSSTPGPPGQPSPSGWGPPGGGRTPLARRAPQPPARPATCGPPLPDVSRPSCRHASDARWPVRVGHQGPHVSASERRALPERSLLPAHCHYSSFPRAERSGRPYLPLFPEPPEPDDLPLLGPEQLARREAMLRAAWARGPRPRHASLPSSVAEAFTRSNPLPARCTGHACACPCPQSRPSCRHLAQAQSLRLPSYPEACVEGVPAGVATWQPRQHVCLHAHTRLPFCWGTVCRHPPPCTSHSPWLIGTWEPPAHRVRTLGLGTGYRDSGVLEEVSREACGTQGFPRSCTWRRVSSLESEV
Source text: The chemical definition of UBP791 used in this study is a cis-racemic mixture of (2S,3R)- and (2R,3S)-isomers.
as §1

SMILES	IC50 [1] [µM]	Ki [1] [µM]	fold difference of Ki vs. 2D (GluN2C) (GluN1-4a/GluN2C NMDARs)
O=C(O)CCc1ccc2c(ccc3cc(C(=O)N4CCN[C@@H](C(=O)O)[C@H]4C(=O)O)ccc32)c1 (relative stereo) [UBP791, (2S*,3R*)-1-(7-(2-carboxyethyl)phenanthrene-2-carbonyl)piperazine-2,3-dicarboxylic acid]	7.24 ± 0.44	1.15 ± 0.05	
O=C(O)C=Cc1ccc2c(ccc3cc(C(=O)N4CCN[C@@H](C(=O)O)[C@H]4C(=O)O)ccc32)c1 (relative stereo) [UBP1700, (2S*,3R*)-1-(7-(2-carboxyvinyl)phenanthrene-2-carbonyl)piperazine-2,3-dicarboxylic acid]			~ 1.3 fold
